Measurements published in patent US5177085A, “Dihydro-isoquinoline derivatives, processes for their production, pharmaceutical compositions containing them, and their use in treating asthma” (Sandoz Ltd., priority 1990, dated 1993).

What was measured:
[1] = test system: PAF-induced airways hyperreactivity in guinea-pigs; assay: Suppression of airways hyperreactivity in PAF-treated animals (Example B); format: in vivo; details: Cavia porcellus, iv; headed Example B (PAF-treated guinea-pigs); i.v.; pure or substantially pure [3S] enantiomer for Example 1; read-out: ID50 (dose required to increase relaxation by 50%)
Protocol: Guinea pigs (Dunkin-Hartley, male, 400-600g) are anesthetized with phenobarbital (100-mg/kg i.p.) and pentobarbital (30 mg/kg i.p.) and paralyzed with gallamine (10 mg/kg i.m.). Animals are ventilated via a tracheal cannula (10 ml/kg, 1 Hz) with a mixture of air and oxygen (1:1 v/v). Blood pressure and heart rate are recorded at the carotid artery. Ventilation is monitored by a Fleisch flow transducer in line with the inspiratory circuit. When making measurements of flow, coincident pressure changes in the thorax are monitored directly via an intrathoracic trochar, permitting display of differential pressure relative to the trachea. From this information in relation to flow and differential pressure, resistance [R1 ] and compliance [Ddyn ] are calculated using a digital respiratory analyzer for each respiratory cycle.
Guinea-pigs are anesthetized and prepared for recording of lung function as described under Example A.2. above. […] Following infusion of PAF (platelet activating factor) over 1 hr.

[2] = test system: guinea-pig tracheal ring preparations; assay: Relaxation of guinea-pig tracheal smooth muscle in vitro (Example A.1.a); format: cell-based, Guinea-pig (Dunkin-Hartley); details: Cavia porcellus; guinea-pig tracheal rings, spontaneous tone, 37° C., cumulative; pure or substantially pure [3S] enantiomer for Example 1; read-out: IC50 (concentration required to increase relaxation by 50%)
Protocol: (§1) Guinea-pigs (Dunkin-Hartley, 350-500gm) are killed with Pentothal (100mg/kg i.p.). The trachea is dissected and a section 2-3cm in length excised. The trachea is transected in the transverse plane at alternate cartilage plates so as to give rings of tissue 3-5mm in depth. The proximal and distal rings are discarded. Individual rings are mounted vertically on stainless steel supports, one of which is fixed at the base of an organ bathm the other being attached to an isometric transducer. The rings are bathed in Krebs solution composition mM: NaHCo3 25, NaCl 113, KCl 4.7, MgSO4.7H2 O 1.2, KH2 PO4 1.2, CaCl2 2.5, Glucose 11.7) at 37° C. and gassed with O2 /CO2 (95:5,v/v). Rings prepared in this manner, preloaded with 1 g, generate spontaneous tone and, after a period of equilibration (45-60 min.), relax consistently on addition of spasmolytic drugs. To ascertain spasmolytic activity, test substances are dissolved in physiological saline and added in increasign quantities to the organ bath at 5 min. intervals to provide a cumulative concentration-effect curve.

[3] = test system: human bronchus ring preparations; assay: Relaxation of human bronchus in vitro (Example A.1.b); format: cell-based; details: human bronchus rings; pure or substantially pure [3S] enantiomer for Example 1
Protocol: as §1
The test is performed analogously to 1. a above but employing rings of human bronchus dissected from lung that has been resected for carcinoma. Dissected material is used immediately or first immersed in total calf serum containing DMSO ([…]), slowly frozen to -70° C. and stored in liquid N2 at -190° C. […]

## COc1cc(OC)cc(C2=N[C@H](CO)Cc3cc(OC)c(OC)cc32)c1 [Example 1, [3S] 3,4-dihydro-6,7-dimethoxy-1-(3,5-dimethoxyphenyl)-3-hydroxymethyl-isoquinoline]
[1]
  ED50: ~0.05 mg/kg
[2]
  IC50: 0.18 µM
[3]
  IC50: 1.9 µM

## Cn1c(=O)c2[nH]cnc2n(C)c1=O [aminophylline]
[2]
  IC50: 130 µM
[3]
  IC50: 158 µM

## Cn1c(=O)c2[nH]cnc2n(C)c1=O [theophyline]
[1]
  ED50: 3 mg/kg
